Values of other authors as cited in US20220295833A1, “SWEETENER BLENDS WITH IMPROVED TASTE” (The Coca-Cola Company, priority 2019, published 2022).

C=C1C[C@@]23CC[C@H]4[C@@](C)(CCC[C@@]4(C)C(=O)O[C@@H]4O[C@H](CO)[C@@H](O)[C@H](O)[C@H]4O)[C@@H]2CC[C@]1(O[C@@H]1O[C@H](CO)[C@@H](O)[C@H](O[C@@H]2O[C@H](CO)[C@@H](O)[C@H](O)[C@H]2O)[C@H]1O[C@@H]1O[C@H](CO)[C@@H](O)[C@H](O)[C@H]1O)C3 [Rebaudioside A]
aqueous solubility: about 0.8 wt %
